We go through 21 compounds from ChEMBL document CHEMBL2202979, “Development of macrocyclic inhibitors of HCV NS3/4A protease with cyclic constrained P2-P4 linkers” (Bioorg Med Chem Lett, 2012).

Data set [1] can be described thus: Inhibition of HCV subtype 3a NS3/4A protease incubated for 30 mins by time-resolved fluorescence assay. Also noted: species or system Hepatitis C virus subtype 3a.
Data set [2] in a line: Inhibition of HCV genotype 1b BK NS3/4A protease expressed in Escherichia coli incubated for 30 mins by time-resolved fluorescence assay. Set-up: species or system Hepatitis C virus (isolate BK).
Data set [3] has as its system Hepatitis C virus. Put plainly: Antiviral activity against HCV genotype 1b Con1 infected in human Huh7 cells assessed as inhibition of viral replication in presence of 50% NHS by HCV bicistronic replicon assay. The format is functional, organism-based, Hepacivirus hominis. Conditions: Con1, Huh-7. A general note: In antiviral work, replicon cells carry a viral genome segment that copies itself.

The target in data set [4] is Hepatitis C virus serine protease, NS3/NS4A (Hepatitis C virus, UniProt A3EZI9+D2K2A8, R155K). Put plainly: Inhibition of HCV genotype 1b BK NS3/4A protease R155K mutant expressed in Escherichia coli incubated for 30 mins by time-resolved fluorescence assay. Also noted: species or system Hepatitis C virus (isolate BK).
The target in data set [5] is Genome polyprotein (Hepacivirus C, UniProt K7XJL6, A156V). The experiment in a line: Inhibition of HCV genotype 1b BK NS3/4A protease A156V mutant expressed in Escherichia coli incubated for 30 mins by time-resolved fluorescence assay. Set-up: species or system Hepatitis C virus (isolate BK).
Data set [6] addresses Genome polyprotein (Hepacivirus C, UniProt K7XJL6, A156T). Put plainly: Inhibition of HCV genotype 1b BK NS3/4A protease A156T mutant expressed in Escherichia coli incubated for 30 mins by time-resolved fluorescence assay. Set-up: species or system Hepatitis C virus (isolate BK).
Data set [7] can be described thus: Drug level in Sprague-Dawley rat liver at 5 mg/kg, po measured 4 hrs post dose by LC/MS method. It counts as ADME, organism-based. Set-up: dose 5 mg/kg, route oral. The following applies: read-out: Drug uptake.

For orientation: Ki means the dissociation constant of the complex between target and ligand, obtained from inhibition or displacement. Usually IC50 stands for the concentration needed to halve the response being measured. For the compound `C=C[C@@H]1C[C@]1(NC(=O)[C@@H]1C[C@@H]2CN1C(=O)[C@H](C1CCCC1)NC(=O)O[C@@H]1COC[C@H]1CCC/C=C/c1cc3ccc(OC)cc3nc1O2)C(=O)NS(=O)(=O)C1CC1`, the Ki is 5.7 nM in data set [1]; less than 0.05 nM in data set [2]; 0.1 nM in data set [4]; 64 nM in data set [5]; 7.8 nM in data set [6]. Also, the half-maximal inhibitory concentration (IC50) in data set [3] was 5 nM.
Take `C=C[C@@H]1C[C@]1(NC(=O)[C@@H]1C[C@@H]2CN1C(=O)[C@H](C1CCCC1)NC(=O)O[C@@H]1CCC[C@H]1C/C=C/c1cc3c(cc(OCC)nc3cc1OC)O2)C(=O)NS(=O)(=O)C1CC1`: the Ki in data set [1] was 4.6 nM; in data set [2], less than 0.05 nM; in data set [4], 0.5 nM; in data set [5] it was 15 nM; in data set [6], 0.8 nM. Besides, the concentration at 4 h in data set [7] came out at 10.2 µM. Besides, the concentration for half-maximal inhibition (IC50) in data set [3] was found to be 17 nM.
As for `C=C[C@@H]1C[C@]1(NC(=O)[C@@H]1C[C@@H]2CN1C(=O)[C@H](C1CCCCC1)NC(=O)O[C@@H]1CCC[C@H]1C/C=C/c1cc3c(cc(OCC)nc3cc1OC)O2)C(=O)NS(=O)(=O)C1CC1`, the Ki in data set [1] was 3.1 nM; in data set [2] it was less than 0.05 nM; in data set [4], 1.3 nM; in data set [5], 40 nM; in data set [6] it was 2 nM. In addition, in data set [7], the concentration at 4 h was 37.1 µM. For the same compound, the concentration for half-maximal inhibition (IC50) in data set [3] is 55 nM.
In the case of `C=C[C@@H]1C[C@]1(NC(=O)[C@@H]1C[C@@H]2CN1C(=O)[C@H](C1CCCCC1)NC(=O)O[C@@H]1CCCC[C@H]1C/C=C/c1cc3c(cc(OCC)nc3cc1OC)O2)C(=O)NS(=O)(=O)C1CC1`, the inhibition constant (Ki) in data set [1] is 12.6 nM; in data set [2], less than 0.05 nM; in data set [4] it was 1.5 nM; in data set [5] it was 567 nM; in data set [6] it was 42 nM. In addition, the IC50 in data set [3] stood at 25 nM.
Consider `C=C[C@@H]1C[C@]1(NC(=O)[C@@H]1C[C@@H]2CN1C(=O)[C@H](C1CCCC1)NC(=O)O[C@@H]1CCC[C@@]1(C)C/C=C/c1cc3c(cc(OCC)nc3cc1OC)O2)C(=O)NS(=O)(=O)C1CC1`, for which the inhibition constant (Ki) in data set [1] is 4.1 nM; in data set [2] it was less than 0.05 nM; in data set [4], 0.9 nM; in data set [6] it was 49 nM. In addition, the 50% inhibitory concentration (IC50) in data set [3] is 38 nM.
As for `C=C[C@@H]1C[C@]1(NC(=O)[C@@H]1C[C@@H]2CN1C(=O)[C@H](C1CCCCC1)NC(=O)O[C@@H]1COC[C@H]1C/C=C/c1cc3c(cc(OCC)nc3cc1OC)O2)C(=O)NS(=O)(=O)C1CC1`, the inhibition constant Ki in data set [1] was 1.9 nM; in data set [2], less than 0.05 nM; in data set [4], 0.5 nM; in data set [5], 23 nM; in data set [6], 0.7 nM. In addition, the concentration at 4 h in data set [7] was 0.3 µM. The IC50 in data set [3] came to 18 nM.
As for `C=C[C@@H]1C[C@]1(NC(=O)[C@@H]1C[C@@H]2CN1C(=O)[C@H](C1CCCC1)NC(=O)O[C@H]1C[C@H](C/C=C/c3cc4c(cc(OCC)nc4cc3OC)O2)C1)C(=O)NS(=O)(=O)C1CC1`, the Ki was 7.7 nM in data set [1]; less than 0.05 nM in data set [2]; 2.4 nM in data set [4]; 16 nM in data set [5]; 4.8 nM in data set [6]. Further, the half-inhibitory concentration (IC50) in data set [3] came to 16 nM.
Turning to `C=C[C@@H]1C[C@]1(NC(=O)[C@@H]1C[C@@H]2CN1C(=O)[C@H](C1CCCC1)NC(=O)N(C)[C@@H]1CCC[C@H]1C/C=C/c1cc3c(cc(OCC)nc3cc1OC)O2)C(=O)NS(=O)(=O)C1CC1`, the Ki is 1.5 nM in data set [1]; less than 0.05 nM in data set [2]; 0.6 nM in data set [4]; 18 nM in data set [5]; 1.7 nM in data set [6]. Moreover, in data set [7], the concentration at 4 h was determined as 15.9 µM. The half-inhibitory concentration (IC50) in data set [3] amounted to 25 nM.
As to `C=C[C@@H]1C[C@]1(NC(=O)[C@@H]1C[C@@H]2CN1C(=O)[C@H](C1CCCCC1)NC(=O)N1CC[C@@H](C1)OC/C=C/c1cc3c(cc(OCC)nc3cc1OC)O2)C(=O)NS(=O)(=O)C1CC1`, the inhibition constant (Ki) in data set [1] was 1.4 nM; in data set [2] it was less than 0.05 nM; in data set [4] it was 0.2 nM; in data set [5] it was 6.8 nM; in data set [6] it was 0.4 nM. Also, the concentration at 4 h in data set [7] was 4.8 µM. For the same compound, in data set [3], the half-maximal inhibitory concentration (IC50) was 43 nM.
For `C=C[C@@H]1C[C@]1(NC(=O)[C@@H]1C[C@@H]2CN1C(=O)[C@H](C1CCCCC1)NC(=O)N1CC[C@H](C1)OC/C=C/c1cc3c(cc(OCC)nc3cc1OC)O2)C(=O)NS(=O)(=O)C1CC1`, the inhibition constant Ki in data set [1] was 3.6 nM; in data set [2], less than 0.05 nM; in data set [4] it was 0.3 nM; in data set [5] it was 134 nM; in data set [6] it was 2.4 nM. Besides, the half-maximal inhibitory concentration (IC50) in data set [3] was found to be 29 nM.
As for `C=C[C@@H]1C[C@]1(NC(=O)[C@@H]1C[C@@H]2CN1C(=O)[C@H](C1CCCCC1)NC(=O)N1CCC[C@@H](C1)OCCCc1cc3c(cc(OCC)nc3cc1OC)O2)C(=O)NS(=O)(=O)C1CC1`, the Ki was 2.3 nM in data set [1]; less than 0.05 nM in data set [2]; 1.2 nM in data set [4]; 46 nM in data set [5]; 1.9 nM in data set [6]. Besides, the concentration at 4 h in data set [7] amounted to 4.4 µM. Moreover, the 50% inhibitory concentration (IC50) in data set [3] worked out at 23 nM.
As for `C=C[C@@H]1C[C@]1(NC(=O)[C@@H]1C[C@@H]2CN1C(=O)[C@H](C1CCCCC1)NC(=O)N1CCO[C@H](CCCCc3cc4c(cc(OCC)nc4cc3OC)O2)C1)C(=O)NS(=O)(=O)C1CC1`, the Ki in data set [1] was 5.2 nM; in data set [2] it was less than 0.05 nM; in data set [4], 1 nM; in data set [6], 6.9 nM. In addition, the IC50 in data set [3] amounted to 9 nM.
Regarding `C=C[C@@H]1C[C@]1(NC(=O)[C@@H]1C[C@@H]2CN1C(=O)[C@H](C1CCCCC1)NC(=O)N1CCC(CC1)OCCC/C=C/c1cc3c(cc(OCC)nc3cc1OC)O2)C(=O)NS(=O)(=O)C1CC1`, the inhibitory constant (Ki) in data set [1] is 2.1 nM; in data set [2], less than 0.05 nM; in data set [4] it was 0.2 nM; in data set [5], 18 nM; in data set [6] it was 0.7 nM. Also, the concentration at 4 h in data set [7] was determined as 11 µM. Further, the IC50 in data set [3] worked out at 32 nM.
In the case of `C=C[C@@H]1C[C@]1(NC(=O)[C@@H]1C[C@@H]2CN1C(=O)[C@H](C1CCCCC1)NC(=O)N1CC(C1)OCCC/C=C/c1cc3c(cc(OCC)nc3cc1OC)O2)C(=O)NS(=O)(=O)C1CC1`, the inhibition constant (Ki) in data set [1] is 0.9 nM; in data set [2], less than 0.05 nM; in data set [4], 0.2 nM; in data set [5], 6.1 nM; in data set [6] it was 0.2 nM. Besides, the concentration at 4 h in data set [7] is 4 µM. The IC50 in data set [3] turned out to be 64 nM.
As for `C=C[C@@H]1C[C@]1(NC(=O)[C@@H]1C[C@@H]2CN1C(=O)[C@H](C1CCCC1)NC(=O)N1CC(OCC)(CCCCc3cc4c(cc(OCC)nc4cc3OC)O2)C1)C(=O)NS(=O)(=O)C1CC1`, the inhibition constant Ki in data set [1] was 1 nM; in data set [2], less than 0.05 nM; in data set [4], 0.9 nM; in data set [6], 7.1 nM. In addition, the half-inhibitory concentration (IC50) in data set [3] stood at 18 nM.
Turning to `C=C[C@@H]1C[C@]1(NC(=O)[C@@H]1C[C@@H]2CN1C(=O)[C@H](C1CCCC1)NC(=O)O[C@@H]1CCC[C@H]1CCC/C=C/c1cc3ccc(OC)cc3nc1O2)C(=O)NS(=O)(=O)C1CC1`, the inhibition constant Ki in data set [1] is 11.6 nM; in data set [2], less than 0.05 nM; in data set [4] it was 0.2 nM; in data set [6], 17 nM. Also, the concentration at 4 h in data set [7] was determined as 30.8 µM. Further, the IC50 in data set [3] amounted to 58 nM.
Take `C=C[C@@H]1C[C@]1(NC(=O)[C@@H]1C[C@@H]2CN1C(=O)[C@H](C1CCCC1)NC(=O)N1CC[C@@H](C1)OCCCCCc1cc3ccc(OC)cc3nc1O2)C(=O)NS(=O)(=O)C1CC1`: the Ki in data set [1] is 5.9 nM; in data set [2] it was less than 0.05 nM; in data set [4] it was 0.1 nM; in data set [5] it was 22 nM; in data set [6] it was 1.5 nM. Moreover, the concentration at 4 h in data set [7] is 12 µM. For the same compound, the IC50 in data set [3] is 31 nM.
Take `C=C[C@@H]1C[C@]1(NC(=O)[C@@H]1C[C@@H]2CN1C(=O)[C@H](C1CCCCC1)NC(=O)N1CCC(CC1)OCCC/C=C/c1cc3ccc(OC)cc3nc1O2)C(=O)NS(=O)(=O)C1CC1`: the inhibition constant (Ki) in data set [1] is 27 nM; in data set [2], less than 0.05 nM; in data set [4], 0.3 nM; in data set [6], 11 nM.
Turning to `C=C[C@@H]1C[C@]1(NC(=O)[C@@H]1C[C@@H]2CN1C(=O)[C@H](C1CCCC1)NC(=O)N1CC(C1)OCCC/C=C/c1cc3ccc(OC)cc3nc1O2)C(=O)NS(=O)(=O)C1CC1`, the Ki is 38 nM in data set [1], less than 0.05 nM in data set [2], 0.5 nM in data set [4] and 28 nM in data set [6].
Turning to `C=C[C@@H]1C[C@]1(NC(=O)[C@@H]1C[C@@H]2CN1C(=O)[C@H](C1CCCC1)NC(=O)O[C@@H]1CCC(CCCc3cc4c(cc(OCC)nc4cc3OC)O2)C1)C(=O)NS(=O)(=O)C1CC1` (mixture of isomers), the inhibition constant (Ki) is 5 nM in data set [1]; less than 0.05 nM in data set [2]; 2 nM in data set [4]; 46 nM in data set [5]; 4.6 nM in data set [6]. In data set [3], the 50% inhibitory concentration (IC50) is 24 nM.
For the compound `C=C[C@@H]1C[C@]1(NC(=O)[C@@H]1C[C@@H]2CN1C(=O)[C@H](C1CCCC1)NC(=O)OC1CCC1C/C=C/c1cc3c(cc(OCC)nc3cc1OC)O2)C(=O)NS(=O)(=O)C1CC1` (mixture of isomers), the Ki is 18 nM in data set [1], less than 0.05 nM in data set [2], 2.2 nM in data set [4] and 52 nM in data set [6].
